Measured values reported in US7977352B2, “Triazolopyridine compounds useful for the treatment of degenerative and inflammatory diseases” (Galapagos NV, priority 2006, dated 2011).

Target: T1, TAK1-TAB1 fusion protein (Homo sapiens, UniProt O43318)
T1 construct: purchased Upstate 14-600
T1 sequence (O43318 with tags, fused parts or gaps limits assumed): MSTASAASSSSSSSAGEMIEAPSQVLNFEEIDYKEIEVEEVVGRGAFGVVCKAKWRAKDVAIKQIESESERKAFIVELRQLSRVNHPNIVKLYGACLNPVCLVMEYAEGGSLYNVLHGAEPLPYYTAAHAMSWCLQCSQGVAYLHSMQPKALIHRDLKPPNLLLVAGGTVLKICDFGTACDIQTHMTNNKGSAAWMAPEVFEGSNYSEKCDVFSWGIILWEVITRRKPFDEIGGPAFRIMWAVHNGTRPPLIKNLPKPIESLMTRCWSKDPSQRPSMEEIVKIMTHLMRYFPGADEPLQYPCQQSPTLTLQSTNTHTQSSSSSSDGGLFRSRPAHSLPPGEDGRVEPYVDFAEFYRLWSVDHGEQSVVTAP
Experiment: In vitro TAK1 kinase assay
Assay type: biochemical
Conditions: casein substrate, [33P]-γ-ATP, 90 minutes at 30° C., semi-quantitative score, read-out: POTENCY TAK1 (MAP3K7)
Method in brief: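 Radiometric kinase assay with TAK1-TAB1 fusion protein (0.5 mU), casein substrate, ATP plus [^33P]-γ-ATP in MOPS pH 7.0/EDTA buffer, compounds in 3-fold dilutions. 90 min at 30 °C, stopped with phosphoric acid; casein-incorporated label captured on filter plates and counted by scintillation.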

`NC(=O)c1ccc(-c2ccc(Nc3ccc(N4CCOCC4)cc3)c3ncnn23)cc1` [Example 1, 4-[8-(4-Morpholin-4-yl-phenylamino)-[1,2,4]triazolo[1,5-a]pyridin-5-yl]-benzamide] was tested, and the IC50 was greater than 10000 nM.
`CN1CCN(c2ccc(Nc3ccc(-c4cn[nH]c4)n4ncnc34)cc2)CC1` [Example 2, [4-(4-Methyl-piperazin-1-yl)-phenyl]-[5-(1H-pyrazol-4-yl)-[1,2,4]triazolo[1,5-a]pyridin-8-yl]-amine] was tested, and the IC50 was 501 to 1000 nM.
With `O=C(NCc1cccnc1)c1ccc(Nc2ccc(-c3cn[nH]c3)n3ncnc23)cc1` [Example 3, 4-[5-(1H-Pyrazol-4-yl)-[1,2,4]triazolo[1,5-a]pyridin-8-ylamino]-N-pyridin-3-ylmethyl-benzamide] the IC50 was 501 to 1000 nM.
Work on `CN1CCN(c2ccc(Nc3ccc(-c4cc[nH]c(=O)c4)n4ncnc34)cc2)CC1` [Example 4, 4-{8-[4-(4-Methyl-piperazin-1-yl)-phenylamino]-[1,2,4]triazolo[1,5-a]pyridin-5-yl}-1H-pyridin-2-one] yielded an IC50 of 501 to 1000 nM.
`O=C(NCc1cccnc1)c1ccc(Nc2ccc(-c3cc[nH]c(=O)c3)n3ncnc23)cc1` [Example 5, 4-[5-(2-oxo-1,2-dihydro-pyridin-4-yl)-[1,2,4]triazolo[1,5-a]pyridin-8-ylamino]-N-pyridin-3-ylmethyl-benzamide] showed an IC50 of 501 to 1000 nM.
With `c1nc2c(Nc3ccc(N4CCOCC4)cc3)ccc(-c3cn[nH]c3)n2n1` [Example 7, (4-Morpholin-4-yl-phenyl)-[5-(1H-pyrazol-4-yl)-[1,2,4]triazolo[1,5-a]pyridin-8-yl]-amine] the IC50 was 501 to 1000 nM.
For `Cc1[nH]ncc1-c1ccc(Nc2ccc(N3CCOCC3)cc2)c2ncnn12` [Example 8, [5-(5-Methyl-1H-pyrazol-4-yl)-[1,2,4]triazolo[1,5-a]pyridin-8-yl]-(4-morpholin-4-yl-phenyl)-amine], the IC50 was 1000 to 5000 nM.
In the case of `CN1CCN(c2ccc(Nc3ccc(-c4cn[nH]c4)n4ncnc34)cc2)CC1` [Example 36, N-[4-(4-methylpiperazin-1-yl)phenyl]-5-(1H-pyrazol-4-yl)[1,2,4]triazolo[1,5-a]pyridin-8-amine], the IC50 is reported as less than 500 nM.
Work on `O=C(NCc1cccnc1)c1ccc(Nc2ccc(-c3cn[nH]c3)n3ncnc23)cc1` [Example 37, 4-{[5-(1H-pyrazol-4-yl)[1,2,4]triazolo[1,5-a]pyridin-8-yl]amino}-N-(pyridin-3-ylmethyl)benzamide] yielded an IC50 of 501 to 1000 nM.
Compound `Cc1[nH]ncc1-c1ccc(Nc2ccc(N3CCOCC3)cc2)c2ncnn12` [Example 39, 5-(5-methyl-1H-pyrazol-4-yl)-N-(4-morpholin-4-ylphenyl)[1,2,4]triazolo[1,5-a]pyridin-8-amine] has an IC50 of 1000 to 5000 nM.
`CN1CCN(c2ccc(Nc3ccc(-c4cc[nH]c(=O)c4)n4ncnc34)cc2)CC1` [Example 40, 4-(8-{[4-(4-methylpiperazin-1-yl)phenyl]amino}[1,2,4]triazolo[1,5-a]pyridin-5-yl)pyridin-2(1H)-one] was tested, and the IC50 was less than 500 nM.
Work on `O=C(NCc1cccnc1)c1ccc(Nc2ccc(-c3cc[nH]c(=O)c3)n3ncnc23)cc1` [Example 41, 4-{[5-(2-oxo-1,2-dihydropyridin-4-yl)[1,2,4]triazolo[1,5-a]pyridin-8-yl]amino}-N-(pyridin-3-ylmethyl)benzamide] yielded an IC50 of 1000 to 5000 nM.
For `CN1CCN(c2ccc(Nc3ccc(-c4ccc(C(N)=O)c(F)c4)n4ncnc34)cc2)CC1` [Example 42, 2-fluoro-4-(8-{[4-(4-methylpiperazin-1-yl)phenyl]amino}[1,2,4]triazolo[1,5-a]pyridin-5-yl)benzamide], the IC50 was 1000 to 5000 nM.
